Calls of active or inactive are those of the source. The calls are words filed in the database; no cut-off is given here.
Tests used:
[1] = Drug uptake in human MDA-MB-231 cells at 20 uM measured after 24 hrs by confocal microscopy based analysis; format: ADME, cell-based; settings: mda-mb-231, 24 h
[2] = Drug uptake in human MDA-MB-231 cells at 20 uM measured after 6 hrs by confocal microscopy based analysis; format: ADME, cell-based; settings: mda-mb-231, 6 h
[3] = tested on: MDA-MB-231; assay: Induction of autophagy in human MDA-MB-231 cells assessed as increase in calcium ion release in cytoplasm by measuring blue fluorescence at 10 uM incubated for 3 hrs followed by dark incubation by Fura-2 dye based confocal microscopy based analysis; format: functional, cell-based
[4] = tested on: MDA-MB-231; assay: Antiproliferative activity against human MDA-MB-231 cells assessed as reduction in cell viability measured after 48 hrs under dark condition by MTT assay; format: functional, cell-based; settings: MDA-MB-231, 48 h
[5] = tested on: MDA-MB-231; assay: Antiproliferative activity against human MDA-MB-231 cells assessed as reduction in cell viability measured after 48 hrs under light condition by MTT assay; format: functional, cell-based; settings: MDA-MB-231, 48 h
[6] = (§1) Selectivity ratio of IC50 for human MDA-MB-231 cells assessed as reduction in cell viability measured after 48 hrs under dark condition to IC50 human MDA-MB-231 cells assessed as reduction in cell viability measured after 48 hrs under light condition; format: functional
[7] = tested on: MDA-MB-231; assay: Antiproliferative activity against human MDA-MB-231 cells assessed as reduction in cell viability measured after 48 hrs under dark condition in presence of chloroquine by MTT assay; format: functional, cell-based; settings: MDA-MB-231, 48 h
[8] = tested on: MDA-MB-231; assay: Antiproliferative activity against human MDA-MB-231 cells assessed as reduction in cell viability measured after 48 hrs under light condition in presence of chloroquine by MTT assay; format: functional, cell-based; settings: MDA-MB-231, 48 h
[9] = as §1, with “condition in presence of chloroquine” for “condition”; format: functional
[10] = tested on: MDA-MB-231; assay: Induction of ROS response in human MDA-MB-231 cells by measuring green fluorescence at 10 uM incubated for 3 hrs under light 24J/cm2 irradiation by H2DCFDA staining based confocal microscopy analysis; format: functional, cell-based
[11] = tested on: MDA-MB-231; assay: Induction of ROS response in human MDA-MB-231 cells by measuring green fluorescence at 10 uM incubated for 3 hrs dark condition by H2DCFDA staining based confocal microscopy analysis; format: functional, cell-based
[12] = Drug localization in lysosome of human MDA-MB-231 cells assessed as colocalization at 20 uM incubated for 3 hrs by lyso-tracker blue staining based confocal microscopy analysis; format: ADME, subcellular; settings: mda-mb-231, 3 h
[13] = Drug localization in lysosome of human MDA-MB-231 cells assessed as colocalization at 20 uM incubated for 3 hrs by MDH staining based confocal microscopy analysis; format: ADME, subcellular; settings: mda-mb-231, 3 h
[14] = tested on: MDA-MB-231; assay: Induction of autophagy in human MDA-MB-231 cells assessed as increase in green fluorescence at 20 uM under light irradiation by confocal microscopy based analysis; format: functional, cell-based

Drug uptake [1] | Drug uptake [2] | IC50 [4] | IC50 [5] | IC50 [7] | IC50 [8] | Drug uptake [12] | Drug uptake [13] | Structure (SMILES) | Activity [3] | Ratio IC50 [6] | Ratio IC50 [9] | Activity [10] | Activity [11] | Activity [14]
Active | Active | 13.2 µM | 0.95 µM | 22.6 µM | 1.17 µM | – | – | CCCCn1c2ccc(/C=C/c3ccc(N(c4ccccc4)c4ccccc4)cc3)cc2c2cc(C3=C4C=CC=[N+]4[B-](F)(F)n4cccc43)ccc21 | Active | 13.84 | >19.33 | Active | Active | –
– | – | > 50 µM | > 50 µM | – | – | – | – | CCN(CC)CCCC(C)Nc1ccnc2cc(Cl)ccc12 (centres undefined) [CHLOROQUINE] | – | – | – | – | – | –
Active | Active | > 50 µM | 17.1 µM | > 50 µM | 5.57 µM | Active | Active | CCCCn1c2ccccc2c2cc(/C=C/c3ccc4c(c3)c3cc(C5=C6C=CC=[N+]6[B-](F)(F)n6cccc65)ccc3n4CCCC)ccc21 | Active | >2.9 | >8.97 | Active | Active | Active
– | – | 11.2 µM | 14.2 µM | – | – | – | – | CO[C@H]1C[C@@H]2CC[C@@H](C)[C@@](O)(O2)C(=O)C(=O)N2CCCC[C@H]2C(=O)O[C@H]([C@H](C)C[C@@H]2CC[C@@H](O)[C@H](OC)C2)CC(=O)[C@H](C)/C=C(\C)[C@@H](O)[C@@H](OC)C(=O)[C@H](C)C[C@H](C)/C=C/C=C/C=C/1C [SIROLIMUS] | – | – | – | – | – | –

Reference: ChEMBL document CHEMBL6074703, “BODIPYS Based Fluorescent Markers To Monitor Autophagic Lysosomes and Lipid Droplets in TNBC” (ACS Med Chem Lett, 2024)
